According to US20190321324A1, “QUATERNARY AMINE ANTIBIOTIC THERAPEUTICS” (BOARD OF REGENTS, THE UNIVERSITY OF TEXAS SYSTEM, priority 2016, published 2019):
In brackets after ≈: the same amount, converted by molar mass. Where a name gives a salt, the structure may show the parent alone. Read-outs that look alike come from different tables or passages of the source.

How the values were obtained:
A. baumannii = A. baumannii MIC of clinically used QACs; type: cell-based, Acinetobacter baumannii; settings: for MIC: unit assumed; for Effect of ribosomal mutations on MIC (in words): BAC resistant mutants, S11 and L24 (Mutants 1 and 4); for Prevention of growth (in words): antibiotic resistant and susceptible A. baumannii
Procedure: (§1) The antimicrobial activity of three QACs that have been approved for human use; Bretylium tosylate, Clofilium tosylate, and Otilonium bromide, were tested (FIG. 1). The length of the hydrocarbon tail on BAC is known to strongly influence its behavior. Clofilium tosylate and Otilonium bromide both have hydrocarbon tails that are hypothesized to allow cell envelope penetration. […] Similar activity was determine for these three compounds in S. aureus (Table 2)
BAC, Bretylium tosylate, Clofilium tosylate, and Otilonium bromide are all QACs but with different structures. […] Bretylium tosylate, Clofilium tosylate, and Otilonium bromide were tested on BAC resistant mutants representing mutations in ribosomal proteins S11, L23, L24 and the UTR of the ribosomal operon. […] The MIC to Otilonium bromide was not affected in these mutants.

S. aureus = S. aureus MIC of clinically used QACs; type: cell-based, Staphylococcus aureus; settings: unit assumed
Procedure: as §1

C. difficile = C. difficile minimal bactericidal assay (MBC); type: cell-based, Clostridium difficile; settings: Clostridioides difficile, 20 h, 20 h at 37° C., anaerobic
Procedure: Activity of Otilonium bromide was also tested using two strains of C. difficile, 43255 and 630 (MDR). The minimal bactericidal assay was performed using 5×10^5 C. difficile bacteria where incubated with vancomycin or OB at the indicated concentrations for 20 h at 37° C. in an anaerobic chamber. The total volume per well in BHIS medium was 100 μl and 5 μL was spotted on RCM medium and plates were incubated for 24 h. The MBC is identified as the concentration of compound the reduced cfu to single or no numbers.

A. baumannii lon mutant = experiment: Sensitivity of A. baumannii lon mutant to Otilonium bromide treatment; type: cell-based, Acinetobacter baumannii

Compound | MIC (A. baumannii; BAC resistant Mutant 7 (19)) | MIC (A. baumannii; BAC resistant Mutant 8 (3)) | Effect of ribosomal mutations on MIC (in words) (A. baumannii) | Prevention of growth (in words) (A. baumannii) | MIC (A. baumannii; strain 17978) | MIC (A. baumannii; strain AYE (MDR)) | MIC (S. aureus; strain MU50 (MDR)) | MIC (S. aureus; strain Newman) | MIC (A. baumannii; BAC resistant Mutant 1 (20)) | MIC (A. baumannii; BAC resistant Mutant 4 (23)) | MIC compared with BAC (A. baumannii; strain 17978) | MBC (C. difficile; strain 630 (MDR), read-out: MBC) | MBC (C. difficile; strain 43255, read-out: MBC) | Sensitivity of lon mutant (in words) (A. baumannii lon mutant) | MBC (C. difficile; strain 630 (MDR)) | MBC (C. difficile; strain 43255)
Clofilium tosylate | 256 µg/mL | 256 µg/mL | increased resistance | prevent growth | 128 µg/mL | 128 µg/mL | 32 µg/mL | 16 µg/mL |  |  |  |  |  |  |  | 
CCCCCCCCOc1ccccc1C(=O)Nc1ccc(C(=O)OCC[N+](C)(CC)CC)cc1.[Br-] [Otilonium bromide] | 16 µg/mL | 16 µg/mL | not affected | prevent growth | 16 µg/mL | 16 µg/mL | 4 µg/mL | 2 µg/mL | 16 µg/mL | 16 µg/mL | equivalent to that of BAC | 2 µg/mL | 1 µg/mL | highly sensitized |  | 
CN[C@H](CC(C)C)C(=O)N[C@H]1C(=O)N[C@@H](CC(N)=O)C(=O)N[C@H]2C(=O)N[C@H]3C(=O)N[C@H](C(=O)N[C@H](C(=O)O)c4cc(O)cc(O)c4-c4cc3ccc4O)[C@H](O)c3ccc(c(Cl)c3)Oc3cc2cc(c3O[C@@H]2O[C@H](CO)[C@@H](O)[C@H](O)[C@H]2O[C@H]2C[C@](C)(N)[C@H](O)[C@H](C)O2)Oc2ccc(cc2Cl)[C@H]1O [Vancomycin] |  |  |  |  |  |  |  |  |  |  |  |  |  |  | ~2 µg/mL (≈ 1.38 µM) | 1 µg/mL (≈ 0.69 µM)
CC[N+](C)(C)Cc1ccccc1Br [Bertylium tosylate, Bretylium tosylate] | > 256 µg/mL | > 256 µg/mL |  | did not show activity | > 256 µg/mL | > 256 µg/mL | > 256 µg/mL | > 256 µg/mL | > 256 µg/mL | > 256 µg/mL |  |  |  |  |  | 
